For data set [1] the following is noted: reference [6]; cited from earlier work.
Data set [2] relates to SF9 cells. Put plainly: Cell lysis, percent cell viability by Vi-Cell (trypan blue exclusion). It is filed as cell-based, insect. The following applies: SF9, 1 hour incubation.
Experimental: The cell rupture solution was tested both for HEK 293 and SF9 cell lines. The cell concentration was >5×10^6 cells/ml. A cell harvest in cell culture media was spiked with the concentrated stock of cell rupture solution to reach a final cell rupture solution concentration ranging from 0% to 0.5% and was incubated for about 5 minutes to about 1 hour at 15° C. to 30° C. The concentration of the stock solution could be 1-500-fold higher than the target concentration. After the incubation period, cell viability of cells was analyzed by a Vi-Cell reader.
SF9 cells for the study were grown in SF-900 II SFM (Invitrogen/Gibco 10902) media in a non-vented non-baffled shake flask. The incubator was set at 27° C. and 125 rpm.
For the cell lysis study, 2 mL of cells were added to each of 10×15 mL tubes under a sterile biosafety cabinet. Each tube was spiked with 0% (control, no detergent), 0.0025%, 0.005%, 0.0075%, 0.01%, 0.02%, 0.05%, 0.1%, 0.25%, and 0.5% of cell rupture solution using a concentrated stock. Cell counts and percent cell viability were determined at 15 min, 30 min, and 1 hour time points for each sample using the ViCell cell viability analyzer.
Cell viability was assessed by a Vi-Cell XR using trypan blue exclusion staining. […]
Data set [3] has as its system HEK 293 cells. To be noted: HEK 293, 1 hour incubation.

Take Octoxynol-9 [Triton X-100]: the “toxicity reported by research” value in data set [1] was “acute oral toxicity, eye damage, skin irritation, and chronic aquatic toxicity”. Also, the “detergent concentration at which cell lysis was complete” value in data set [2] and in data set [3] was 0.05% in each case.

Values taken from patent publication US20250197794A1, “MEMBRANE RUPTURE COMPOSITIONS AND METHODS OF MAKING AND USING SAME” (priority 2020, published 2025).
